Assay results reported in ChEMBL document CHEMBL1201862, “PubChem BioAssay data set” (2004).
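Cultured in 96-well plates, cells were exposed to test compound for 48 hours across five concentrations. GI50: concentration for 50% inhibition of growth.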 Calls of active or inactive are those of the source. Rule as the data show it: active = GI50 up to about 1.1 µM and inactive = higher.

Tests used:
Assay in all cases: growth of human tumour cells (NCI), 48 h
HCC 2998 = tested on: HCC 2998
MCF7 = tested on: MCF7
A498 = tested on: A498
NCI-H23 = tested on: NCI-H23
CCRF-CEM = tested on: CCRF-CEM
U-251 = tested on: U-251
UACC-62 = tested on: UACC-62
SNB-75 = tested on: SNB-75
NCI-H460 = tested on: NCI-H460
HOP-92 = tested on: HOP-92
MDA-MB-231 = tested on: MDA-MB-231
T47D = tested on: T47D
M14 = tested on: M14
HT-29 = tested on: HT-29
RXF 393 = tested on: RXF 393
UO-31 = tested on: UO-31
MDA-MB-435 = tested on: MDA-MB-435
Hs-578T = tested on: Hs-578T
NCI-H522 = tested on: NCI-H522
PC-3 = tested on: PC-3

Compound | GI50 (HCC 2998) | GI50 (MCF7) | GI50 (A498) | GI50 (NCI-H23) | GI50 (CCRF-CEM) | GI50 (U-251) | GI50 (UACC-62) | GI50 (SNB-75) | GI50 (NCI-H460) | GI50 (HOP-92) | GI50 (MDA-MB-231) | GI50 (T47D) | GI50 (M14) | GI50 (HT-29) | GI50 (RXF 393) | GI50 (UO-31) | GI50 (MDA-MB-435) | GI50 (Hs-578T) | GI50 (NCI-H522) | GI50 (PC-3)
C1CN(c2nnc(N3CCC3)nn2)C1 | > 100 µM (inactive) | > 50.2 µM (inactive) | > 100 µM (inactive) | 30.6 µM (inactive) | > 100 µM (inactive) | > 71.8 µM (inactive) | 19.3 µM (inactive) | 21 µM (inactive) | 67.9 µM (inactive) | > 100 µM (inactive) | > 42.6 µM (inactive) | > 100 µM (inactive) | 36.1 µM (inactive) | 35.6 µM (inactive) | > 63.5 µM (inactive) | > 100 µM (inactive) | 18.4 µM (inactive) | 39 µM (inactive) | 44.4 µM (inactive) | > 46 µM (inactive)
C/C(=N\Nc1nc2ccccc2s1)c1cc(C)ncn1 | 1.72 µM (inactive) | 0.341 µM (active) | 9.93 µM (inactive) | 0.741 µM (active) | 0.0929 µM (active) | 1 µM (active) | 0.979 µM (active) | 1.34 µM (inactive) | 0.426 µM (active) | 1.54 µM (inactive) | 0.286 µM (active) | 0.206 µM (active) | 0.474 µM (active) | 0.0637 µM (active) | 3.02 µM (inactive) | 0.389 µM (active) | 2.81 µM (inactive) | 0.738 µM (active) | 0.07 µM (active) | 0.612 µM (active)
NCC(=O)C(O)C(O)C(O)CO (centres undefined) | > 100 µM (inactive) | > 100 µM (inactive) | > 100 µM (inactive) | > 100 µM (inactive) | > 100 µM (inactive) | > 100 µM (inactive) | > 100 µM (inactive) | 65.9 µM (inactive) | > 100 µM (inactive) | > 100 µM (inactive) | > 100 µM (inactive) | > 100 µM (inactive) | > 100 µM (inactive) | > 100 µM (inactive) | > 100 µM (inactive) | > 100 µM (inactive) | > 100 µM (inactive) | > 100 µM (inactive) | > 100 µM (inactive) | > 100 µM (inactive)
COc1cc2cc(C(=O)N3CC(CCl)c4ccc([N+](C)(C)Cc5ccc([N+](=O)[O-])cc5)cc43)[nH]c2c(OC)c1OC (centres undefined) | 1.41 µM (inactive) | 2.14 µM (inactive) | 1.76 µM (inactive) | 1.77 µM (inactive) | 2.01 µM (inactive) | 2.71 µM (inactive) | 2.13 µM (inactive) | 3.3 µM (inactive) | 1.52 µM (inactive) | 2.52 µM (inactive) | 7.55 µM (inactive) | 3.48 µM (inactive) | 5.68 µM (inactive) | 2.03 µM (inactive) | 1.36 µM (inactive) | 2.1 µM (inactive) | 4.54 µM (inactive) | 9.62 µM (inactive) | 0.552 µM (active) | 2.09 µM (inactive)
CCCCc1cc2c(cc1O)CCC1C2CC[C@@]2(C)C1CC[C@@H]2O (some centres undefined) | 19.9 µM (inactive) | 11.8 µM (inactive) | 21.8 µM (inactive) | 20.2 µM (inactive) | 21.5 µM (inactive) | 19.4 µM (inactive) | 11.6 µM (inactive) | 13 µM (inactive) | 21.9 µM (inactive) | 20 µM (inactive) | 29.3 µM (inactive) | 8.97 µM (inactive) | 18.9 µM (inactive) | 23.2 µM (inactive) | 2.89 µM (inactive) | 14.5 µM (inactive) | 16.9 µM (inactive) | 11.3 µM (inactive) | 14 µM (inactive) | 12.4 µM (inactive)
C=C1c2nc3ccccc3n2C=C(c2ccc(C)cc2)N1c1ccc(C)cc1 | 22.5 µM (inactive) | 26.2 µM (inactive) | > 100 µM (inactive) | > 59.6 µM (inactive) | 33 µM (inactive) | 86.3 µM (inactive) | > 83.8 µM (inactive) | > 100 µM (inactive) | 42.3 µM (inactive) | 68.5 µM (inactive) | > 83.4 µM (inactive) | > 100 µM (inactive) | 56.1 µM (inactive) | 37.9 µM (inactive) | 25.9 µM (inactive) | 46 µM (inactive) | 11.6 µM (inactive) | > 100 µM (inactive) | 17.2 µM (inactive) | 28.6 µM (inactive)
COC(=O)C(Cc1c[nH]c2ccccc12)NC1=Nc2ccncc2S(=O)(=O)N1c1cccc(OC(C)C)c1 (centres undefined) | 48.8 µM (inactive) | 24.7 µM (inactive) | 82 µM (inactive) | 20.1 µM (inactive) | 20.6 µM (inactive) | 47.6 µM (inactive) | 25.9 µM (inactive) | 53.2 µM (inactive) | 27.7 µM (inactive) | 3.94 µM (inactive) | 49.4 µM (inactive) | 36.1 µM (inactive) | 41.6 µM (inactive) | 34.2 µM (inactive) | > 100 µM (inactive) | 45.3 µM (inactive) | 45.9 µM (inactive) | > 100 µM (inactive) | 21.4 µM (inactive) | 39.9 µM (inactive)
NC1(C(=O)OCc2ccccc2)CCCC1 | 28 µM (inactive) | 25.1 µM (inactive) | 41.3 µM (inactive) | 17.5 µM (inactive) | 11.4 µM (inactive) | 16.3 µM (inactive) | 15.9 µM (inactive) | 18 µM (inactive) | 43.3 µM (inactive) | 14.4 µM (inactive) | 15.8 µM (inactive) | 25.3 µM (inactive) | 14.5 µM (inactive) | 37.8 µM (inactive) | 17.4 µM (inactive) | 15.6 µM (inactive) | 15.1 µM (inactive) | 23.7 µM (inactive) | 7.06 µM (inactive) | 27.2 µM (inactive)
[O-][n+]1onc2c3nn(-c4ccccc4)nc3ccc21 | 15.6 µM (inactive) | 7.69 µM (inactive) | > 100 µM (inactive) | 41.6 µM (inactive) | 25.6 µM (inactive) | > 100 µM (inactive) | > 86.1 µM (inactive) | > 100 µM (inactive) | > 100 µM (inactive) | > 100 µM (inactive) | > 100 µM (inactive) | 7.4 µM (inactive) | > 100 µM (inactive) | 35.2 µM (inactive) | > 65.9 µM (inactive) | > 100 µM (inactive) | > 100 µM (inactive) | 32.1 µM (inactive) | > 96.2 µM (inactive) | > 83.2 µM (inactive)
COC(=O)[C@@H]1[C@H](OC(C)=O)CCC2[C@@]3(C[C@@H](c4ccoc4)O[C@@H]3OC)[C@H](C)CC[C@]21C(=O)OC (some centres undefined) | > 25 µM (inactive) | > 25 µM (inactive) | > 25 µM (inactive) | > 25 µM (inactive) | > 25 µM (inactive) | > 25 µM (inactive) | > 25 µM (inactive) | > 25 µM (inactive) | > 25 µM (inactive) | > 25 µM (inactive) | > 25 µM (inactive) | > 25 µM (inactive) | > 25 µM (inactive) | > 25 µM (inactive) | > 25 µM (inactive) | > 25 µM (inactive) | > 25 µM (inactive) | > 25 µM (inactive) | > 25 µM (inactive) | > 25 µM (inactive)
CC(=O)NC1C(OCc2ccccc2)OC(CO)C(O)C1OCC(=O)N1CCCC1C(=O)NC(CCC(=O)NCCCCCNc1c2ccccc2nc2cccc([N+](=O)[O-])c12)C(N)=O (centres undefined) | 0.00706 µM (active) | 0.003 µM (active) | 0.0568 µM (active) | 0.0336 µM (active) | 0.07 µM (active) | 0.0108 µM (active) | 0.0225 µM (active) | 0.145 µM (active) | 0.00125 µM (active) | 0.0252 µM (active) | 0.0175 µM (active) | 0.578 µM (active) | 0.0228 µM (active) | 0.00125 µM (active) | 0.00938 µM (active) | 0.0422 µM (active) | 0.0154 µM (active) | 0.0345 µM (active) | 0.0353 µM (active) | 0.00321 µM (active)
C[C@@H](c1ccccc1)N1C[C@@H](c2ccc3c(c2)OCO3)[C@@H]2C(=O)CCC[C@@H]21 | 30.1 µM (inactive) | 27.8 µM (inactive) | 28.6 µM (inactive) | 61.8 µM (inactive) | 61 µM (inactive) | 66.5 µM (inactive) | 25.5 µM (inactive) | 36.4 µM (inactive) | 54.5 µM (inactive) | 47.1 µM (inactive) | 63.8 µM (inactive) | 37.3 µM (inactive) | 19.5 µM (inactive) | 98.9 µM (inactive) | 88.5 µM (inactive) | 83 µM (inactive) | 67.8 µM (inactive) | 72.9 µM (inactive) | 42.5 µM (inactive) | 59.2 µM (inactive)
CSc1nc2ccccc2c(=O)n1-c1cccc(C)c1 | 15.6 µM (inactive) | 32.5 µM (inactive) | 19.9 µM (inactive) | > 100 µM (inactive) | 32.6 µM (inactive) | > 100 µM (inactive) | 71 µM (inactive) | 32 µM (inactive) | 36 µM (inactive) | 26.5 µM (inactive) | > 100 µM (inactive) | 29.2 µM (inactive) | 95.5 µM (inactive) | 38.6 µM (inactive) | 81.8 µM (inactive) | 0.364 µM (active) | 29.1 µM (inactive) | 47.4 µM (inactive) | 67.8 µM (inactive) | 46.6 µM (inactive)
Cc1cc(NCCCCCCCCCC[n+]2c(C)cc(N)c3ccccc32)c2ccccc2n1 | 0.675 µM (active) | 0.313 µM (active) | 2.08 µM (inactive) | 0.0708 µM (active) | 0.472 µM (active) | 0.069 µM (active) | 1.16 µM (inactive) | 0.853 µM (active) | 0.0638 µM (active) | 1.83 µM (inactive) | 0.652 µM (active) | 0.333 µM (active) | 2.04 µM (inactive) | – | 4.1 µM (inactive) | 5.52 µM (inactive) | 1.01 µM (active) | 0.375 µM (active) | 0.253 µM (active) | 0.188 µM (active)
